Measurements reported in patent US20240391862A1, “(1,4,5-TRISUBSTITUTED-1H-PYRAZOL-3-YL)OXY-2-ALKOXY ALKYL ACIDS AND THEIR DERIVATIVES, THEIR SALTS AND THEIR USE AS HERBICIDAL AGENTS” (Bayer AKtiengesellschaft, priority 2021, published 2024).

Columns and labels:
Experiment in all cases: Post-emergence herbicidal effect, greenhouse pot test
ECHCG = format: in vivo, Echinochloa crus-galli
In short: (§1)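 Visual % activity scored roughly 3 weeks post-spray against untreated plants, where 100% means death and 0% equals control. Plants were treated at the one-leaf stage, 2 to 3 weeks after sowing in sandy loam, at 20 to 320 g/ha.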

MATIN = format: in vivo, Tripleurospermum inodorum
In short: as §1

POLCO = format: in vivo, Fallopia convolvulus
In short: as §1

VIOTR = format: in vivo, Viola tricolor
In short: as §1

LOLRI = format: in vivo, Lolium rigidum
In short: as §1

DIGSA = format: in vivo, Digitaria sanguinalis; details: visual rating about 3 weeks after treatment
In short: as §1

SETVI = format: in vivo, Setaria viridis
In short: as §1

VERPE = format: in vivo, Veronica persica
In short: as §1

AMARE = format: in vivo, Amaranthus retroflexus; details: visual rating about 3 weeks after treatment
In short: as §1

ABUTH = format: in vivo, Abutilon theophrasti; details: visual rating about 3 weeks after treatment
In short: as §1

KCHSC = format: in vivo
In short: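 Visual rating of activity against untreated plants (100% = plants died, 0% = no effect), done about 3 weeks after treatment. Compounds applied at 20–320 g/ha as aqueous spray (600 l/ha, 0.5% additive) from WP or EC formulations onto one-leaf-stage plants grown in sandy loam under greenhouse conditions.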

ALOMY = format: in vivo, Alopecurus myosuroides; details: visual rating about 3 weeks after treatment
In short: as §1

AVEFA = format: in vivo, Avena fatua; details: visual rating about 3 weeks after treatment
In short: as §1

PHBPU = format: in vivo, Ipomoea purpurea
In short: as §1

COC(=O)C(OC)Oc1nn(-c2ncccc2F)c(-c2cncc(F)c2)c1C1CC1 (stereo not drawn) [Example I-87]
90%: Post-emergence effect against ECHCG (ECHCG; 20 g/ha, visual rating about 3 weeks after treatment) | Post-emergence effect against ECHCG in % (ECHCG; 80 g/ha) | Post-emergence effect against ECHCG in % (ECHCG; 320 g/ha) | Post-emergence effect against POLCO in % (POLCO; 80 g/ha) | Post-emergence effect against POLCO in % (POLCO; 320 g/ha) | Post-emergence effect against VIOTR in % (VIOTR; 20 g/ha) | Post-emergence effect against VIOTR in % (VIOTR; 80 g/ha) | Post-emergence effect against VIOTR in % (VIOTR; 320 g/ha) | Post-emergence effect against LOLRI in % (LOLRI; 80 g/ha) | Post-emergence effect against LOLRI in % (LOLRI; 320 g/ha) | Post-emergence effect against DIGSA (DIGSA; 320 g/ha) | Post-emergence effect against SETVI in % (SETVI; 80 g/ha) | Post-emergence effect against SETVI in % (SETVI; 320 g/ha) | pest or weed control at 20 g/ha (SETVI; Setaria viridis, 504 h, 20 g/ha, read-out: Post-emergence effect against SETVI in %) | Post-emergence effect against VERPE in % (VERPE; 80 g/ha) | Post-emergence effect against VERPE in % (VERPE; 320 g/ha) | Post-emergence effect against AMARE (AMARE; 320 g/ha) | Post-emergence effect against ABUTH (ABUTH; 80 g/ha) | Post-emergence effect against ABUTH (ABUTH; 320 g/ha) | pest or weed control at 20 g/ha (ABUTH; Abutilon theophrasti, 504 h, 20 g/ha, read-out: Post-emergence effect against ABUTH) | Post-emergence effect against KCHSC in % (KCHSC; 80 g/ha) | Post-emergence effect against KCHSC in % (KCHSC; 320 g/ha) | pest or weed control at 20 g/ha (KCHSC; 504 h, 20 g/ha, read-out: Post-emergence effect against KCHSC in %) | Post-emergence effect against ALOMY (ALOMY; 80 g/ha) | Post-emergence effect against ALOMY (ALOMY; 320 g/ha) | Post-emergence effect against AVEFA (AVEFA; 80 g/ha) | Post-emergence effect against AVEFA (AVEFA; 320 g/ha) | Post-emergence effect against PHBPU in % (PHBPU; 20 g/ha) | Post-emergence effect against PHBPU in % (PHBPU; 80 g/ha) | Post-emergence effect against PHBPU in % (PHBPU; 320 g/ha)
80%: Post-emergence effect against MATIN in % (MATIN; 80 g/ha) | Post-emergence effect against MATIN in % (MATIN; 320 g/ha) | Post-emergence effect against POLCO in % (POLCO; 20 g/ha) | pest or weed control at 80 g/ha (DIGSA; Digitaria sanguinalis, 504 h, 80 g/ha, read-out: Post-emergence effect against DIGSA) | pest or weed control at 20 g/ha (VERPE; Veronica persica, 504 h, 20 g/ha, read-out: Post-emergence effect against VERPE in %) | Post-emergence effect against AMARE (AMARE; 80 g/ha)

CCOC(=O)C(OCC)Oc1nn(-c2ccccc2F)c(-c2ccc(F)nc2)c1Br (single isomer, unassigned) [Example I-66, Ethyl (2R*)-{[4-bromo-1-(2-fluorophenyl)-5-(6-fluoropyridin-3-yl)-1H-pyrazol-3-yl]oxy}(ethoxy)acetate]
90%: pest or weed control at 80 g/ha (ECHCG; Echinochloa crus-galli, 504 h, 80 g/ha, read-out: Post-emergence effect against ECHCG in %) | pest or weed control at 320 g/ha (ECHCG; Echinochloa crus-galli, 504 h, 320 g/ha, read-out: Post-emergence effect against ECHCG in %) | pest or weed control at 320 g/ha (MATIN; Tripleurospermum inodorum, 504 h, 320 g/ha, read-out: Post-emergence effect against MATIN in %) | pest or weed control at 320 g/ha (LOLRI; Lolium rigidum, 504 h, 320 g/ha, read-out: Post-emergence effect against LOLRI in %) | pest or weed control at 320 g/ha (DIGSA; Digitaria sanguinalis, 504 h, 320 g/ha, read-out: Post-emergence effect against DIGSA) | pest or weed control at 320 g/ha (SETVI; Setaria viridis, 504 h, 320 g/ha, read-out: Post-emergence effect against SETVI in %) | pest or weed control at 320 g/ha (VERPE; Veronica persica, 504 h, 320 g/ha, read-out: Post-emergence effect against VERPE in %) | pest or weed control at 320 g/ha (ABUTH; Abutilon theophrasti, 504 h, 320 g/ha, read-out: Post-emergence effect against ABUTH) | pest or weed control at 320 g/ha (KCHSC; 504 h, 320 g/ha, read-out: Post-emergence effect against KCHSC in %) | pest or weed control at 320 g/ha (ALOMY; Alopecurus myosuroides, 504 h, 320 g/ha, read-out: Post-emergence effect against ALOMY) | pest or weed control at 320 g/ha (PHBPU; Ipomoea purpurea, 504 h, 320 g/ha, read-out: Post-emergence effect against PHBPU in %)
80%: pest or weed control at 80 g/ha (MATIN; Tripleurospermum inodorum, 504 h, 80 g/ha, read-out: Post-emergence effect against MATIN in %) | pest or weed control at 320 g/ha (POLCO; Fallopia convolvulus, 504 h, 320 g/ha, read-out: Post-emergence effect against POLCO in %) | pest or weed control at 80 g/ha (VERPE; Veronica persica, 504 h, 80 g/ha, read-out: Post-emergence effect against VERPE in %) | pest or weed control at 80 g/ha (AMARE; Amaranthus retroflexus, 504 h, 80 g/ha, read-out: Post-emergence effect against AMARE) | pest or weed control at 320 g/ha (AMARE; Amaranthus retroflexus, 504 h, 320 g/ha, read-out: Post-emergence effect against AMARE) | pest or weed control at 80 g/ha (ABUTH; Abutilon theophrasti, 504 h, 80 g/ha, read-out: Post-emergence effect against ABUTH) | pest or weed control at 80 g/ha (KCHSC; 504 h, 80 g/ha, read-out: Post-emergence effect against KCHSC in %) | pest or weed control at 320 g/ha (AVEFA; Avena fatua, 504 h, 320 g/ha, read-out: Post-emergence effect against AVEFA) | pest or weed control at 20 g/ha (PHBPU; Ipomoea purpurea, 504 h, 20 g/ha, read-out: Post-emergence effect against PHBPU in %) | pest or weed control at 80 g/ha (PHBPU; Ipomoea purpurea, 504 h, 80 g/ha, read-out: Post-emergence effect against PHBPU in %)
